Assay results as given in article PMC3070735, “Uremic Toxins Inhibit Transport by Breast Cancer Resistance Protein and Multidrug Resistance Protein 4 at Clinically Relevant Concentrations” (PLoS ONE, 2011).
Counter-ions that a name gives are not always drawn.

Columns and labels:
[1] = parameters: method as in PMID 8832487, PMID 10052856; conditions: isolated perfused rat kidney, secretory transport; cited from earlier work
MRP4 = target: T1, MRP4 (Homo sapiens, UniProt O15439); assay: Membrane vesicle transport inhibition assay: MRP4-mediated [3H]-MTX uptake
T1 sequence (O15439 1-1325): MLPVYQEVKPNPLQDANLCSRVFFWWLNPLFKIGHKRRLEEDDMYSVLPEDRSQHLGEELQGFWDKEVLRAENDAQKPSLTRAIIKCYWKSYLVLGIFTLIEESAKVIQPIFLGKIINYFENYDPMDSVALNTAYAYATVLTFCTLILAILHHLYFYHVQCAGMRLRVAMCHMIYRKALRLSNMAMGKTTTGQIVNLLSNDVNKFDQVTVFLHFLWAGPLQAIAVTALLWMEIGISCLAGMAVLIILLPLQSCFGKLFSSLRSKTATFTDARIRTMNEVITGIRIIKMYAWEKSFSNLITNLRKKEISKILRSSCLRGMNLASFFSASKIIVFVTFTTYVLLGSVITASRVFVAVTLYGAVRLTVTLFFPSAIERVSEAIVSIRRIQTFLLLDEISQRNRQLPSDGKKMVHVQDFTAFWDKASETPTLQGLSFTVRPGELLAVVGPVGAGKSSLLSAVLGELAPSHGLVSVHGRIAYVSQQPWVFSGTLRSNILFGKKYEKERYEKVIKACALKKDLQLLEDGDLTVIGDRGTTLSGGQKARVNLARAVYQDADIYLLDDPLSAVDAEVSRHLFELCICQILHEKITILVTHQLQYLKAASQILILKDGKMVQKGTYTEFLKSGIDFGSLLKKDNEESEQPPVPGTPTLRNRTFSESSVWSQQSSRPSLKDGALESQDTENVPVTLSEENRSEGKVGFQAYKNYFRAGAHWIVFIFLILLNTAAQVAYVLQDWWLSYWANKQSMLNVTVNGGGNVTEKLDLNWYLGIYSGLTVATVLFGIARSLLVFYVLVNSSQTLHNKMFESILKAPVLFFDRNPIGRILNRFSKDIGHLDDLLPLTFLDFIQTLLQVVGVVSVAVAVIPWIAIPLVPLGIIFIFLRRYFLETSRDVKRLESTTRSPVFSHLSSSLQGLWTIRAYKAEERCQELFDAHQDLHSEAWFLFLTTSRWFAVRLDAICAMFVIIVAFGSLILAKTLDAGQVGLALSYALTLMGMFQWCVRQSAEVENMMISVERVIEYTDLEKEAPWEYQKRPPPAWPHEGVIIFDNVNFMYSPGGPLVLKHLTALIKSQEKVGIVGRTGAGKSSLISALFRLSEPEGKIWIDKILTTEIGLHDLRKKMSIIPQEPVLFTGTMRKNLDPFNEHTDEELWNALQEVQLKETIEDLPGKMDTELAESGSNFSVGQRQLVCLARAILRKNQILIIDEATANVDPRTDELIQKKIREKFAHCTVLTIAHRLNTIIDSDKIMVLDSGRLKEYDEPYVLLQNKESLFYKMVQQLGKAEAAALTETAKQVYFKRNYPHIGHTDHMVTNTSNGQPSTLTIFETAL
Procedure: (§1) Human embryonic kidney (HEK293; purchased at American Type Culture Collection, Manassas, VA) cells were cultured in Dulbecco's modified Eagle's medium (Invitrogen life sciences, Breda, the Netherlands) containing 10% (v/v) fetal calf serum (MP Biomedicals, Uden, the Netherlands) at 37°C in a 5% (v/v) CO2 atmosphere. To functionally overexpress MRP4 and BCRP, HEK293 cells were transduced with baculoviruses of human MRP4, BCRP or enhanced yellow fluorescent protein (EYFP), generated via the Bac-to-Bac system (Invitrogen) as previously described. To transduce HEK293 cells, they were cultured in 500 cm^2 flasks until 70% confluence. Subsequently, medium was removed and 10 ml of virus and 25 ml of medium were added and incubated for 30 min at 37°C. Next, 50 ml of medium was added and after 2 h of transduction 5 mM sodium butyrate was added.
Three days after transduction, cells were harvested and pelleted by centrifugation (30 min at 4,000 x g). Afterwards, the cells were resuspended in ice-cold hypotonic TS buffer (0.5 mM sodium phosphate, 0.1 mM EDTA, pH 7.0) containing protease inhibitors (100 µM phenylmethylsulfonyl fluoride, 5 µg/ml aprotinin, 5 µg/ml leupeptin, 1 µg/ml pepstatin and 1 µg/ml E-64) and shaken for 30 min at 4°C. Cells were then centrifuged at 100,000 x g for 30 min at 4°C. […] Afterwards, supernatant was centrifuged at 100,000 x g for 1 h at 4°C. […] The protein content of samples was determined using the Bio-Rad protein assay (Veenendaal, the Netherlands), according to manufacturers recommendations. Vesicles were frozen in liquid nitrogen and stored at −80°C until use. The orientation of the membrane vesicles was not determined, since ATP-dependent uptake occurs only in inside-out vesicles.
(§2) A rapid filtration technique was used to study the uptake of [^3H]-MTX and [^3H]-E1S into MRP4 or BCRP membrane vesicles, as previously described. In short, 25 µl of TS buffer containing 4 mM ATP, 10 mM MgCl2 and radiolabeled substrate was added to 5 µl of the membrane vesicles (1.5 mg/ml). The transport assay was performed in the absence or presence of various concentrations of uremic toxins to evaluate the inhibitory effects of these compounds on MRP4-mediated [^3H]-MTX uptake and BCRP-mediated [^3H]-E1S uptake. […] Uptake was stopped by placing the samples on ice and the addition of 150 µl ice cold TS buffer. Subsequently, the samples were transferred to a 96 well filter plate (Millipore, Etten-leur, the Netherlands) pre-incubated with TS buffer and filtered using a Multiscreen HTS-Vacuum Manifold filtration device (Millipore). Afterwards, 2 ml of scintillation liquid was added to each filter and radioactivity was determined using liquid scintillation counting. As negative controls ATP was substituted for AMP and EYFP-membrane vesicles were used. Each experiment was performed in triplicates.
(§3) Differences between groups were considered to be statistically significant when p<0.05. The mean IC50 and IC20 values were calculated from the inhibition curves used for the Dixon analysis and to determine the inhibition constant (Ki) from the Dixon plots. Transport inhibition studies were performed in triplicate and repeated at least three times.

BCRP = target: T2, BCRP (Homo sapiens, UniProt Q9UNQ0); assay: Membrane vesicle transport inhibition assay: BCRP-mediated [3H]-E1S uptake
T2 sequence (Q9UNQ0 1-655): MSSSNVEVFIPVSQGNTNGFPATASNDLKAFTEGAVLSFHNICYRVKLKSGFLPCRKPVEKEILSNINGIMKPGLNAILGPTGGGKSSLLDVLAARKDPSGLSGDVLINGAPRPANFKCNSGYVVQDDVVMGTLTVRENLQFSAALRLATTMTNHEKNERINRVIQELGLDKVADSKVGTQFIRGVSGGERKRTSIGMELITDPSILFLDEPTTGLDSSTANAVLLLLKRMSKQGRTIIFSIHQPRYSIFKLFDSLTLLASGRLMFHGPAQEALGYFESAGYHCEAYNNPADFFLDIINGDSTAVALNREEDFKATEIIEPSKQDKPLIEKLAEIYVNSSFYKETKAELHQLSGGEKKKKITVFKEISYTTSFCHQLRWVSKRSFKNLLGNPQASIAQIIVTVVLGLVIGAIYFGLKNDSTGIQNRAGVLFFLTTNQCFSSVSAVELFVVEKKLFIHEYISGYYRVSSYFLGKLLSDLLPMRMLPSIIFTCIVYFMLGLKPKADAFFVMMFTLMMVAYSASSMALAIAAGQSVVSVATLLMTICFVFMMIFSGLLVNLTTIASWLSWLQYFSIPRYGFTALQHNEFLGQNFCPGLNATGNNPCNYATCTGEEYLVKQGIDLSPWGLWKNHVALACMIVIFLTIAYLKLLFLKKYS
Procedure: as §1
Three days after transduction, cells were harvested and pelleted by centrifugation (30 min at 4,000 x g). Afterwards, the cells were resuspended in ice-cold hypotonic TS buffer (0.5 mM sodium phosphate, 0.1 mM EDTA, pH 7.0) containing protease inhibitors (100 µM phenylmethylsulfonyl fluoride, 5 µg/ml aprotinin, 5 µg/ml leupeptin, 1 µg/ml pepstatin and 1 µg/ml E-64) and shaken for 30 min at 4°C. Cells were then centrifuged at 100,000 x g for 30 min at 4°C. Subsequently, pellet was resuspended in ice-cold isotonic buffer (10 mM Tris-HEPES and 250 mM sucrose, pH 7.4, adjusted with HEPES) supplemented with protease inhibitors and homogenized using a tight fitting Dounce homogenizer followed by centrifugation (1,000 x g, 20 min, 4°C). Afterwards, supernatant was centrifuged at 100,000 x g for 1 h at 4°C. The resulting pellet was resuspended in isotonic buffer and passed through a 27-gauge needle 25 times to obtain crude membrane vesicles. The protein content of samples was determined using the Bio-Rad protein assay (Veenendaal, the Netherlands), according to manufacturers recommendations. Vesicles were frozen in liquid nitrogen and stored at −80°C until use. The orientation of the membrane vesicles was not determined, since ATP-dependent uptake occurs only in inside-out vesicles.
as §2
as §3, with “Statistics were performed using GraphPad Prism 5.02 via an unpaired t test or a Kruskal-Wallis test followed by a Dunn's Multiple Comparison test. Differences” for “Differences”

SMILES: Cc1ccccc1C(=O)NCC(=O)O [2-methyl hippuric acid]
- Level in kidney tissue compared to the perfusate [1]: 175 times

SMILES: CN(Cc1cnc2nc(N)nc(N)c2n1)c1ccc(C(=O)N[C@@H](CCC(=O)O)C(=O)O)cc1 [[^3H]-MTX, [3′,5′,7′-^3H(n)]-methotrexate disodium salt, reference compound]
- ATP-dependent uptake compared to EYFP vesicles (MRP4; MRP4-overexpressing vesicles vs EYFP vesicles): 11 fold
- ATP-dependent uptake, average rate (MRP4; MRP4-overexpressing vesicles, no inhibitor): 1.3 pmol/mg/min

SMILES: Cc1ccc(C(=O)NCC(=O)O)cc1 [4-methyl hippuric acid]
- Level in kidney tissue compared to the perfusate [1]: 600 times

SMILES: N.[3H]C1c2cc(OS(=O)(=O)O)ccc2[C@H]2CC[C@]3(C)C(=O)CC[C@H]3[C@@H]2C1[3H] (stereo partly drawn) [[^3H]-E1S, [6′,7′-^3H(n)]-estrone-sulfate ammonium salt, reference compound]
- ATP-dependent uptake compared to EYFP controls (BCRP; BCRP-overexpressing vesicles vs EYFP controls): 24 fold
- ATP-dependent uptake, average rate (BCRP; BCRP-overexpressing vesicles, no inhibitor): 15.5 pmol/mg/min
